Results from US11325899B2, “Benzofurane and benzothiophene derivatives as PGE2 receptor modulators” (IDORSIA PHARMACEUTICALS LTD, priority 2017, dated 2022).

Target: T1, EP4 receptor (Homo sapiens, UniProt P35408)
T1 construct: BT549 breast cancer cells, express high endogenous EP4 levels and very low EP2 levels; host or cells: BT549 breast cancer cells
Test: hEP4 cAMP assay (BT549 breast cancer cells, HTRF cAMP, PGE2 stimulation)
Assay type: cell-based
Settings: antagonistic activity, PGE2 6 nM (EC80)
Method in brief: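 BT549 cells, with endogenous EP4 and very low EP2, were preincubated 45 min at room temperature with compound in HBSS/HEPES/BSA buffer with 2 mM IBMX. They were then stimulated 30 min with 6 nM PGE2 (EC80). cAMP was measured by HTRF competitive immunoassay against a calibrator; IC50 from duplicate dose-response as % of DMSO control.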

T1 sequence (P35408 whole entry): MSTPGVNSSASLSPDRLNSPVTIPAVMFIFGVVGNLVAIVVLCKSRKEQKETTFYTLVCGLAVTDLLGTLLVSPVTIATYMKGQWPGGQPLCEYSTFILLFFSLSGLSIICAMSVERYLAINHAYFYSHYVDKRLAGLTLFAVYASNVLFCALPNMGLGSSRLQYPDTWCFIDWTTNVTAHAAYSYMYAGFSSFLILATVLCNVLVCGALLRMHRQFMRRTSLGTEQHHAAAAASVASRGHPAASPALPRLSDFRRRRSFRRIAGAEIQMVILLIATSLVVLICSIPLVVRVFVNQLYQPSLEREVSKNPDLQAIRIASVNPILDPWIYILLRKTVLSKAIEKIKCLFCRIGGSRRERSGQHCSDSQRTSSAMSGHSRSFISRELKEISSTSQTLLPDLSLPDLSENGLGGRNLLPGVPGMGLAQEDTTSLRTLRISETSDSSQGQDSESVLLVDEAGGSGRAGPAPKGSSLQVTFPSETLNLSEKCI

Structure (SMILES) | IC50
COc1ccc(F)c2c(CCNc3cc(-c4ccc(C(=O)O)c(OC5CCC5)c4F)ncn3)c(C)sc12 [Example 146, 2-Cyclobutoxy-3-fluoro-4-{6-[2-(4-fluoro-7-methoxy-2-methyl-benzo[b]thiophen-3-yl)-ethylamino]-pyrimidin-4-yl}-benzoic acid] | 0.243 µM
COc1cc(Cl)cc2c(CCNc3cc(-c4ccc(C(=O)O)c(OC5CCC5)c4F)ncn3)c(C)oc12 [Example 147, 4-{6-[2-(5-Chloro-7-methoxy-2-methyl-benzofuran-3-yl)-ethylamino]-pyrimidin-4-yl}-2-cyclobutoxy-3-fluoro-benzoic acid] | 0.889 µM
Cc1sc2c(C)ccc(F)c2c1CCNc1cc(-c2cc(F)c(C(=O)O)c(OC3CCC3)c2)ncn1 [Example 148, 2-Cyclobutoxy-6-fluoro-4-{6-[2-(4-fluoro-2,7-dimethyl-benzo[b]thiophen-3-yl)-ethylamino]-pyrimidin-4-yl}-benzoic acid] | 0.238 µM
COc1ccc(F)c2c(CCNc3cc(-c4cc(F)c(C(=O)O)c(OC5CCC5)c4)ncn3)c(C)sc12 [Example 149, 2-Cyclobutoxy-6-fluoro-4-{6-[2-(4-fluoro-7-methoxy-2-methyl-benzo[b]thiophen-3-yl)-ethylamino]-pyrimidin-4-yl}-benzoic acid] | 0.241 µM
COc1cc(F)c(F)c2c(CCNc3cc(-c4cc(F)c(C(=O)O)c(OC5CCC5)c4)ncn3)c(C)oc12 [Example 150, 2-Cyclobutoxy-4-{6-[2-(4,5-difluoro-7-methoxy-2-methyl-benzofuran-3-yl)-ethylamino]-pyrimidin-4-yl}-6-fluoro-benzoic acid] | 0.45 µM
COc1cc(Cl)cc2c(CCNc3cc(-c4cc(F)c(C(=O)O)c(OC5CCC5)c4)ncn3)c(C)oc12 [Example 151, 4-{6-[2-(5-Chloro-7-methoxy-2-methyl-benzofuran-3-yl)-ethylamino]-pyrimidin-4-yl}-2-cyclobutoxy-6-fluoro-benzoic acid] | 0.631 µM
Cc1sc2c(C)cc(F)cc2c1CCNc1cc(-c2ccc(C(=O)O)c(OC3CCCC3)c2)ncn1 [Example 152, 2-Cyclopentyloxy-4-{6-[2-(5-fluoro-2,7-dimethyl-benzo[b]thiophen-3-yl)-ethylamino]-pyrimidin-4-yl}-benzoic acid] | 0.581 µM
CCOc1cc(-c2cc(NCCc3c(C)sc4c(C)cc(F)cc34)ncn2)sc1C(=O)NS(C)(=O)=O [Example 157, N-(3-Ethoxy-5-{6-[2-(5-fluoro-2,7-dimethyl-benzo[b]thiophen-3-yl)-ethylamino]-pyrimidin-4-yl}-thiophene-2-carbonyl)-methanesulfonamide] | 0.069 µM
CCOc1cc(-c2cc(NCCc3c(C)sc4c(C)cc(F)cc34)ncn2)sc1-c1nnn[nH]1 [Example 158, {6-[4-Ethoxy-5-(1H-tetrazol-5-yl)-thiophen-2-yl]-pyrimidin-4-yl}-[2-(5-fluoro-2,7-dimethyl-benzo[b]thiophen-3-yl)-ethyl]-amine] | 0.02 µM
CCc1nc(-c2cc(NCCc3c(C)sc4c(C)cc(F)cc34)ncn2)sc1C(=O)O [Example 161, 4-Ethyl-2-{6-[2-(5-fluoro-2,7-dimethyl-benzo[b]thiophen-3-yl)-ethylamino]-pyrimidin-4-yl}-thiazole-5-carboxylic acid] | 0.363 µM
CCOc1cc(-c2cc(NCCc3c(C#N)sc4c(OC)cccc34)ncn2)ccc1CC(=O)O [Example 164, (4-{6-[2-(2-Cyano-7-methoxy-benzo[b]thiophen-3-yl)-ethylamino]-pyrimidin-4-yl}-2-ethoxy-phenyl)-acetic acid] | 0.017 µM
Cc1cc(F)cc2c(CCNc3cc(-c4ccc(C(=O)O)c(OC(C)C)c4)ncn3)c(C#N)sc12 [Example 172, 4-{6-[2-(2-Cyano-5-fluoro-7-methyl-benzo[b]thiophen-3-yl)-ethylamino]-pyrimidin-4-yl}-2-isopropoxy-benzoic acid] | 0.07 µM
Cc1sc2c(C)cc(F)cc2c1CCNc1cc(-c2ccc(C(=O)O)c(OCC(C)C)c2)ncn1 [Example 184, 4-{6-[2-(5-Fluoro-2,7-dimethyl-benzo[b]thiophen-3-yl)-ethylamino]-pyrimidin-4-yl}-2-isobutoxy-benzoic acid] | 0.553 µM

Next, values leading:

IC50 | Structure (SMILES)
0.827 µM | COc1ccc(Cl)c2c(CCNc3cc(-c4ccc(C(=O)O)c(OC5CCCC5)c4)ncn3)c(C)sc12 [Example 153, 4-{6-[2-(4-Chloro-7-methoxy-2-methyl-benzo[b]thiophen-3-yl)-ethylamino]-pyrimidin-4-yl}-2-cyclopentyloxy-benzoic acid]
0.901 µM | Cc1oc2c(C)cc(F)cc2c1CCNc1cc(-c2ccc(C(=O)O)c(OC3CCCC3)c2)ncn1 [Example 154, 2-Cyclopentyloxy-4-{6-[2-(5-fluoro-2,7-dimethyl-benzofuran-3-yl)-ethylamino]-pyrimidin-4-yl}-benzoic acid]
0.108 µM | CCOc1cc(-c2cc(NCCc3c(C)sc4c(C)cc(F)cc34)ncn2)ccc1-c1noc(=O)[nH]1 [Example 155, 3-(2-Ethoxy-4-{6-[2-(5-fluoro-2,7-dimethyl-benzo[b]thiophen-3-yl)-ethylamino]-pyrimidin-4-yl}-phenyl)-[1,2,4]oxadiazol-5(4H)-one [tautomeric form: 3-(2-ethoxy-4-(6-((2-(5-fluoro-2,7-dimethylbenzo[b]thiophen-3-yl)ethyl)amino)pyrimidin-4-yl)phenyl)-[1,2,4]oxadiazol-5-ol]]
0.163 µM | CCOc1cc(-c2cc(NCCc3c(C)sc4c(C)cc(F)cc34)ncn2)sc1C(=O)NS(N)(=O)=O [Example 156, 3-Ethoxy-5-(6-((2-(5-fluoro-2,7-dimethylbenzo[b]thiophen-3-yl)ethyl)amino)pyrimidin-4-yl)-N-sulfamoylthiophene-2-carboxamide]
0.018 µM | CCOc1nc(-c2cc(NCCc3c(C)sc4c(C)cc(F)cc34)ncn2)sc1C(=O)O [Example 160, 4-Ethoxy-2-{6-[2-(5-fluoro-2,7-dimethyl-benzo[b]thiophen-3-yl)-ethylamino]-pyrimidin-4-yl}-thiazole-5-carboxylic acid]
0.051 µM | CCOc1nc(-c2cc(NCCc3c(C)sc4c(C)cc(F)cc34)ncn2)sc1-c1noc(=O)[nH]1 [Example 162, 3-(4-Ethoxy-2-{6-[2-(5-fluoro-2,7-dimethyl-benzo[b]thiophen-3-yl)-ethylamino]-pyrimidin-4-yl}-thiazol-5-yl)-[1,2,4]oxadiazol-5(4H)-one [tautomeric form: 3-(4-ethoxy-2-(6-((2-(5-fluoro-2,7-dimethylbenzo[b]thiophen-3-yl)ethyl)amino)pyrimidin-4-yl)thiazol-5-yl)-[1,2,4]oxadiazol-5-ol]]
0.429 µM | CCc1nc(-c2cc(NCCc3c(C)sc4c(C)cc(F)cc34)ncn2)sc1-c1noc(=O)[nH]1 [Example 163, 3-(4-Ethyl-2-{6-[2-(5-fluoro-2,7-dimethyl-benzo[b]thiophen-3-yl)-ethylamino]-pyrimidin-4-yl}-thiazol-5-yl)-[1,2,4]oxadiazol-5(4H)-one [tautomeric form: 3-(4-ethyl-2-(6-((2-(5-fluoro-2,7-dimethylbenzo[b]thiophen-3-yl)ethyl)amino)pyrimidin-4-yl)thiazol-5-yl)-[1,2,4]oxadiazol-5-ol]]
0.04 µM | CCOc1cc(-c2cc(NCCc3c(C#N)sc4c(C)cc(F)cc34)ncn2)cc(F)c1CC(=O)O [Example 165, (4-{6-[2-(2-Cyano-5-fluoro-7-methyl-benzo[b]thiophen-3-yl)-ethylamino]-pyrimidin-4-yl}-2-ethoxy-6-fluoro-phenyl)-acetic acid]
1.13 µM | Cc1sc2c(C)cccc2c1CCNc1cc(-c2ccc(C(=O)O)c(SCC(C)C)c2)ncn1 [Example 166, 4-{6-[2-(2,7-Dimethyl-benzo[b]thiophen-3-yl)-ethylamino]-pyrimidin-4-yl}-2-isobutylsulfanyl-benzoic acid]
0.029 µM | CCCc1cc(-c2cc(NCCc3c(C#N)sc4c(C)cc(F)cc34)ncn2)ccc1C(=O)O [Example 167, 4-{6-[2-(2-Cyano-5-fluoro-7-methyl-benzo[b]thiophen-3-yl)-ethylamino]-pyrimidin-4-yl}-2-propyl-benzoic acid]
2.99 µM | COc1cc(-c2cc(NCCc3c(C#N)sc4c(C)cc(F)cc34)ncn2)ccc1CC(=O)O [Example 168, (4-{6-[2-(2-Cyano-5-fluoro-7-methyl-benzo[b]thiophen-3-yl)-ethylamino]-pyrimidin-4-yl}-2-methoxy-phenyl)-acetic acid]
0.03 µM | CCCOc1cc(-c2cc(NCCc3c(C#N)sc4c(C)cc(F)cc34)ncn2)ccc1CC(=O)O [Example 169, (4-{6-[2-(2-Cyano-5-fluoro-7-methyl-benzo[b]thiophen-3-yl)-ethylamino]-pyrimidin-4-yl}-2-propoxy-phenyl)-acetic acid]
0.013 µM | CCCc1cc(-c2cc(NCCc3c(C#N)sc4c(C)cc(F)cc34)ncn2)ccc1CC(=O)O [Example 170, (4-{6-[2-(2-Cyano-5-fluoro-7-methyl-benzo[b]thiophen-3-yl)-ethylamino]-pyrimidin-4-yl}-2-propyl-phenyl)-acetic acid]
0.042 µM | Cc1cc(F)cc2c(CCNc3cc(-c4ccc(CC(=O)O)c(OC(C)C)c4)ncn3)c(C#N)sc12 [Example 171, (4-{6-[2-(2-Cyano-5-fluoro-7-methyl-benzo[b]thiophen-3-yl)-ethylamino]-pyrimidin-4-yl}-2-isopropoxy-phenyl)-acetic acid]
0.012 µM | CCOc1cc(-c2cc(NCCc3c(C#N)sc4c(C)cc(F)cc34)ncn2)ccc1OCCC(=O)O [Example 176, 3-(4-{6-[2-(2-Cyano-5-fluoro-7-methyl-benzo[b]thiophen-3-yl)-ethylamino]-pyrimidin-4-yl}-2-ethoxy-phenoxy)-propionic acid]
0.378 µM | Cc1sc2c(C)cc(F)cc2c1CCNc1cc(-c2ccc(CC(=O)O)c(CC(C)C)c2)ncn1 [Example 182, (4-{6-[2-(5-Fluoro-2,7-dimethyl-benzo[b]thiophen-3-yl)-ethylamino]-pyrimidin-4-yl}-2-isobutyl-phenyl)-acetic acid]
